Assay: xn = mol fraction of the nth substance listed
Conditions: 101.3 kPa, Liquid; for speed of sound: Frequency=3 MHz, Single path-length method; for mass density: Vibrating tube method

CCCC[n+]1ccn(C)c1.O=S(=O)([N-]S(=O)(=O)C(F)(F)F)C(F)(F)F + COC(=O)OC
Conditions | mass density, 303.15 K [kg/m3] | mass density, 308.15 K [kg/m3] | mass density, 313.15 K [kg/m3] | mass density, 318.15 K [kg/m3] | mass density, 323.15 K [kg/m3] | speed of sound, 303.15 K [m/s] | speed of sound, 308.15 K [m/s] | speed of sound, 313.15 K [m/s] | speed of sound, 318.15 K [m/s] | speed of sound, 323.15 K [m/s]
x1 = 0.0512 | 1120.1 | 1113.8 | 1107.5 | 1101.2 | 1094.9 | 1187 | 1167.2 | 1147.5 | 1127.6 | 1108.3
x1 = 0.101 | 1168.9 | 1163 | 1157 | 1151 | 1145 | 1196.1 | 1177.7 | 1159.4 | 1141 | 1123
x1 = 0.1495 | 1207.1 | 1201.3 | 1195.5 | 1189.8 | 1184 | 1203.7 | 1186.5 | 1169.4 | 1152.4 | 1135.6
x1 = 0.1945 | 1236.1 | 1230.5 | 1224.9 | 1219.3 | 1213.7 | 1209.2 | 1192.9 | 1176.8 | 1160.8 | 1144.9
x1 = 0.2994 | 1288.3 | 1282.9 | 1277.6 | 1272.2 | 1266.9 | 1215.4 | 1200.7 | 1186.2 | 1171.7 | 1157.4
x1 = 0.3999 | 1324.3 | 1319.1 | 1313.9 | 1308.8 | 1303.6 | 1217.4 | 1203.8 | 1190.3 | 1176.9 | 1163.6
x1 = 0.4976 | 1351.4 | 1346.3 | 1341.2 | 1336.2 | 1331.1 | 1217.7 | 1204.9 | 1192.1 | 1179.5 | 1166.9
x1 = 0.5842 | 1370.7 | 1365.6 | 1360.7 | 1355.7 | 1350.7 | 1217.4 | 1205 | 1192.8 | 1180.6 | 1168.6
x1 = 0.6886 | 1389.7 | 1384.8 | 1379.8 | 1374.9 | 1370.1 | 1217.4 | 1205.5 | 1193.7 | 1182.1 | 1170.5
x1 = 0.7475 | 1399 | 1394.1 | 1389.2 | 1384.3 | 1379.5 | 1217.2 | 1205.6 | 1194 | 1182.6 | 1171.3
x1 = 0.8014 | 1406.6 | 1401.8 | 1396.9 | 1392.1 | 1387.3 | 1217 | 1205.6 | 1194.2 | 1183 | 1171.8
x1 = 0.889 | 1417.4 | 1412.6 | 1407.8 | 1403 | 1398.2 | 1216.8 | 1205.6 | 1194.5 | 1183.6 | 1172.7
x1 = 0.9526 | 1424.2 | 1419.4 | 1414.6 | 1409.9 | 1405.1 | 1216.8 | 1205.7 | 1194.8 | 1184 | 1173.3
x1 = 1 | 1428.9 | 1424.1 | 1419.4 | 1414.6 | 1409.9 | 1216.8 | 1205.8 | 1195 | 1184.2 | 1173.6

Source: the NIST ThermoML archive (doi:10.1016/j.jct.2017.07.013)
